What was measured:
[1] = test system: myeloid leukemia (HL-60) cells; test: Differentiation of HL-60 cells, CD14 and CD11b expression by flow cytometry; type: cell-based, human; details: 72 hours
Description: If HDAC is a critical component of receptor function then addition of a deacetylase inhibitor, such as Trichostatin A (TSA) (Taunton et al., Science 272:408-411 (1996)) would be expected to relieve transcriptional repression, resulting in a promoter that is likely to be more sensitive to the addition of hormone. This prediction was tested by studying the effect of TSA on the differentiation of myeloid leukemia (HL-60) cells (Collins, Blood 70:1233-1244 (1987)) following a high dose ( 100 nM) 9-cis RA treatment. A hallmark of this process is the appearance of cell surface differentiation markers CD14 and CD11b (Brackman et al., Leukemia Research 19:57-64 (1995)). HL-60 cells cultured in RPMI 10% FBS were plated at a density of 2×10^5/ml in RPMI 2% FBS treated with 9-cis RA (Sigma) and/or Trichostatin A (TSA) (Waco Pure Chemical Industries) for 72 hours and then incubated with R-phycoerythrin (RPE) conjugated anti-human C3bi receptor (CD11b) (DAKO) or RPE-conjugated monoclonal mouse anti-human CD 14 (DAKO) antibodies for 60 minutes on ice. Cells were washed twice with PBS 0.5% BSA and analyzed on a FACScan flow cytometer (Becton Dickinson). The expression of cell surface antigens (CD11b and CD14) were monitored.

NB4 cells [2] = test: Nitroblue Tetrazolium (NBT) reduction differentiation assay in NB4 cells; type: cell-based, human; details: three days
Description: (§1) This prediction was tested utilizing the NB4 cell line established from a patient with t(15;17) APL. NB4, NB4-R4 (Shao et al. (1997) Blood 89:4282-4289), HL-60 and HL-60R (Robertson et al. (1992) Blood 80:1885-1889) cells were cultured in RPMI with 10% FBS. […] Differentiation assays with RA and/or TSA were carried out as previously described (Nagy et al. (1997) Cell 89:373-380). NBT assay has been described (Nagy et al. (1995) Mole. Cell. Biol. 15:3540-3551).

NB4 cells [3] = test: CD18 expression in NB4 cells by flow cytometry; type: cell-based, human; details: TSA plus 9-cis RA, three days
Description: as §1
For flow cytometry analysis of CD18 expression, the cells were incubated with a FITC-conjugated anti-CD18 antibody (DAKO) in a dilution of 1:500 in PBS (0.5% BSA) followed by extensive washing before analyzing on a FACSCAN flow cytometer (Becton Dickinson). Although histone deacetylase inhibitors are known to have pleiotropic effects on global gene expression, the fact that CD18 is a direct retinoid target gene (Agura et al. (1992) Blood 79:602-609) supports the notion that histone deacetylases are integral components of PML-RARα mediated differentiation. […] This would explain why the inhibition of SMRT-mediated repression by TSA increases the retinoid sensitivity of NB4 cells.

GAL-PLZF-RARα = GAL-PLZF-RARα activation of UAS reporter, transient transfection in CV1 cells; type: cell-based; details: for reporter activation in combination with ATRA: TSA 150 nM or NaB 5 mM plus ATRA; for reporter activation in combination with ATRA / relief of repression by GAL-PLZF-RARα: 16 hours; for relief of repression by GAL-PLZF-RARα: TSA 150 nM or NaB 5 mM
Description: (§2) GAL4-DBD fusions of RARα or PLZF-RARα were transfected into CV1 cells and examination of their RA-activation on UAS reporters. CV1 cells were transfected using DOTAP transfection reagents (Boehringer Mannheim). Luciferase activity of each sample was normalized against internal control β-galactosidase activity (Nagy et al. (1997) Cell 89:373-380). Each transfection was carried out in triplicate and repeated at least three times.

NB4-R4 cells = test: NBT reduction differentiation assay in retinoid-resistant NB4-R4 cells; type: cell-based, human; details: three days
Description: as §1

PML-RARα = test: TK-βRARE×2-Luc reporter, transcriptional inhibition by PML-RARα in CV1 cells; type: cell-based; details: NaB 5 mM, 100 nM ATRA
Description: as §2
(§3) It was then sought to determine whether similar effects can be seen on native RA-response elements. As shown previously, exogenous expression of PLZF-RARα or PML-RARα inhibits RA-activation mediated by endogenous RARs on βRARE reporters (FIG. 6(C); de Thé et al. (1991) Cell 66:675-684; Kastner et al. (1992) EMBO J. 11:629-642; Chen et al. (1994) Proc. Natl Acad. Sci. USA 91:1178-1182; Licht et al. (1996) Oncogene 12:323-336; Rousselot et al. (1994) Oncogene 9:545-551).

PLZF-RARα = test: TK-βRARE×2-Luc reporter, transcriptional inhibition by PLZF-RARα in CV1 cells; type: cell-based; details: NaB 5 mM, 100 nM ATRA
Description: as §2, §3

[4] = test system: PLZF-RARα / GST-SMRT-IDII; test: GST-SMRT-IDII affinity matrix, binding of radiolabelled PLZF-RARα; details: presence of 5 μM ATRA
Description: (§4) Recombinant proteins were obtained as follows and in vitro protein interaction assays were carried out as follows. GST-PLZF and GST-SMRT fusion proteins were produced from E. Coli DH5a or BL-21 cells and purified by glutathione-Sepharose 4B affinity chromatography. Bound proteins were eluted with 15 mM glutathione. Purified proteins were then reloaded on glutathione-Sepharose 4B beads and used as affinity matrices. Protein interaction assays were performed in G buffer (20 mM Tris, 7.9, 150 mM KCl, 1 mM EDTA, 4 mM MgCl2, 0.26 NP-40, 10% Glycerol) at 4° C. for 60 min with gentle rocking. The beads were washed five times with G buffer and bounded proteins were eluted in SDS sample buffer, separated by SDS-PAGE and visualized by autoradiography.

[5] = target: T1, SMRT associated with RARα (Homo sapiens, UniProt P10276); test: Immunoprecipitation of HA-RARα from CV1 cell extracts, immunoblot for SMRT; type: cell-based; details: ATRA (5 μM), 4° C. overnight
T1 construct: HA-RARα (amino acids 61-462); expressed in transfected cells; host or cells: CV1 cells
T1 sequence (P10276 61-462): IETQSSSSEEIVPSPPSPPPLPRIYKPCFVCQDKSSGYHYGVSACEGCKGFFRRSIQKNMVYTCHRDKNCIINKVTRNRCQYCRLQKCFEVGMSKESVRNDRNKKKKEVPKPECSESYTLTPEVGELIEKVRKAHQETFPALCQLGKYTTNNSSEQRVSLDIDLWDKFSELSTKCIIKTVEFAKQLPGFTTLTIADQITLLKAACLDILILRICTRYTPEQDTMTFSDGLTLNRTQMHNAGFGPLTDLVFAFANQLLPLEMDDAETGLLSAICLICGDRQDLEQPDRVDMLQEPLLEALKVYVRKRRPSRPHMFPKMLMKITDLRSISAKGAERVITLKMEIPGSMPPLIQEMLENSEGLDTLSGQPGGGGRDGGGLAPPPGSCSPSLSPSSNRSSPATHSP
Description: (§5) For in vitro immunoprecipitation, in vitro translated proteins were incubated together with 10 μg/μl anti-HA antibody in G buffer at 4° C. for 60 min. Immunocomplexes were isolated by incubation with protein A-agarose, washed four times with G buffer, analyzed by SDS-PAGE and visualized by autoradiography. For in vivo immunoprecipitation, 2×10^7 CV1 cells were transfected with 10 μg of appropriate plasmids and harvested in ice-cold PBS, 24 hours after transfection. Cells were lysed by hypotonic shock and the nuclear pellet was resuspended in IP buffer (PBS, 10 mM NaF, 25 mM β-glycerolphosphate, 0.1% NP-40, 0.5 mM PMSF plus protease inhibitors) and disrupted by mild sonication.
(§6) Immunocomplexes were resolved by SDS-PAGE and analyzed by immunoblotting.

RARα / SMRT = target: T2, RARα / SMRT (Homo sapiens, UniProt P10276); test: GST-SMRT (amino acids 1,073-1,330) affinity matrix, radiolabelled RARα; type: binding; details: ATRA
T2 construct: made in house; host or cells: in vitro translated receptor; GST-SMRT from E. coli
T2 sequence (P10276 1-462): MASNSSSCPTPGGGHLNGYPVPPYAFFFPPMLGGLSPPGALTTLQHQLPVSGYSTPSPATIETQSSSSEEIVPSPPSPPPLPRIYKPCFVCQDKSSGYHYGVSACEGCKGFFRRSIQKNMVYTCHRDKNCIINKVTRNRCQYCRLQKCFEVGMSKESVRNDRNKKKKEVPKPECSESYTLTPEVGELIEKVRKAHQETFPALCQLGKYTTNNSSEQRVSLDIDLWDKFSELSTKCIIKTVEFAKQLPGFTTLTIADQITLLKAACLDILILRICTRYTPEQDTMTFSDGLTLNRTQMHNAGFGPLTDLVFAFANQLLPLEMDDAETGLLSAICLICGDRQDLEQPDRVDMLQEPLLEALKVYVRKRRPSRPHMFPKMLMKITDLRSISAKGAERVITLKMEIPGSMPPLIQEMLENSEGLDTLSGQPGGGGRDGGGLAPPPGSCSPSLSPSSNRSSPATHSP

[6] = test system: PLZF-RARα / GST-SMRT-PID2; test: GST-SMRT-PID2 affinity matrix, binding of radiolabelled PLZF-RARα; details: presence or absence of 5 μM ATRA
Description: as §4

[7] = test system: SMRT associated with PLZF-RARα; test: Immunoprecipitation of HA-PLZF-RARα from CV1 cell extracts, immunoblot for SMRT; type: cell-based; details: ATRA (5 μM), 4° C. overnight
Description: as §5, §6

RARα / GST-SMRT-IDII = target: T3, RARα / GST-SMRT-IDII (Homo sapiens, UniProt P10276); test: GST-SMRT-IDII affinity matrix, binding of radiolabelled RARα; details: presence of 5 μM ATRA
T3 construct: made in house; host or cells: 35S-labelled receptor (in vitro translation); GST-SMRT from E. coli DH5a or BL-21
T3 sequence (P10276 1-462): T2 sequence (P10276 1-462)
Description: as §4

[8] = test system: PML-RARα expressing HL-60 cells; details: Rousselot et al. (1994); cited from earlier work
[9] = test system: SMRT / DNA-bound PML-RARα; test: Gel mobility shift assay, GST-SMRT-IDII with PML-RARα homodimers on DR5 elements; type: binding; details: compared with RARα/RXRα heterodimers
Text: The protein-DNA complexes were then resolved on a 4.5% native polyacrylamide gel and visualized by autoradiography.

PML-RARα/SMRT complex = test: GST-SMRT (amino acids 1,073-1,330) affinity matrix, radiolabelled PML-RARα; type: binding; details: ATRA

In the case of `CC1=C(/C=C/C(C)=C\C=C\C(C)=C\C(=O)O)C(C)(C)CCC1` [9-cis RA, 9-cis retinoic acid], the CD14 expression ([1]; suboptimal dose (10 nM) of 9-cis RA alone) is reported as “modest stimulation”.

With `CC(/C=C/C(=O)NO)=C\[C@@H](C)C(=O)c1ccc(N(C)C)cc1` [TSA, Trichostatin A] the CD14 expression ([1]; 100 nM TSA alone) was “minimal effect”, the CD14 expression ([1]; TSA plus 10 nM 9-cis RA, compared with 100 nM 9-cis RA) was “dramatic enhancement” and the CD14 expression ([1]; TSA plus high dose (100 nM) 9-cis RA) was “enhanced”. The CD11b expression ([1]; combination of TSA and 9-cis RA) was “cooperative at both high and low doses”, the CD11b expression ([1]; low doses of TSA alone) was “partially activated gene expression” and the “differentiation effect of ATRA (NBT-positive cells)” value (NB4 cells [2]; TSA 50 nM plus ATRA at all concentrations tested) was “dramatically enhanced”. For the same compound, the “differentiation (NBT-positive cells)” value (NB4 cells [2]; TSA (50 nM) alone) was “no effect”, the “RA-induced expression of early differentiation marker CD18” value (NB4 cells [3]) was “strong stimulatory effect” and the “reporter activation in combination with ATRA” value (GAL-PLZF-RARα) was “synergized with ATRA”. For the same compound, the “relief of repression by GAL-PLZF-RARα” value (GAL-PLZF-RARα) was “relieved repression”, the “percentage of NBT-positive cells” value (NB4-R4 cells; ATRA and 200 nM TSA) was 18% and the “hormone-induced differentiation (NBT-positive cells)” value (NB4-R4 cells; TSA plus ATRA) was “partially restored hormone-induced differentiation”.

For `CCCC(=O)[O-].[Na+]` [NaB, sodium butyrate], the “relief of transcriptional inhibition by PML-RARα on βRARE reporter” value (PML-RARα) was “partially, relieves transcriptional inhibition”, the “RA activation of βRARE reporter in the presence of PLZF-RARα” value (PLZF-RARα) was “restore nearly full RA activation” and the “reporter activation in combination with ATRA” value (GAL-PLZF-RARα) was “synergized with ATRA”. For the same compound, the “relief of repression by GAL-PLZF-RARα” value (GAL-PLZF-RARα) was “relieved repression”.

In the case of `CC1=C(/C=C/C(C)=C/C=C/C(C)=C/C(=O)O)C(C)(C)CCC1` [ATRA, all-trans retinoic acid], the “percentage of NBT-positive cells” value (NB4 cells [2]; 1 mM ATRA alone, parental NB4 cells) is reported as 23%, the “binding of PLZF-RARα to GST-SMRT-IDII” value [4] is reported as “significantly reduced” and the “amount of SMRT which associates with RARα” value [5] is reported as “greatly reduced”. For the same compound, the “dissociation of SMRT from RARα” value (RARα / SMRT) was “effectively dissociated”, the “binding of PLZF-RARα to GST-SMRT-PID2” value [6] was “ligand-insensitive” and the “amount of SMRT associated with PLZF-RARα” value [7] was “largely unaffected”. The “binding of RARα to GST-SMRT-IDII” value (RARα / GST-SMRT-IDII) was “significantly reduced”, the “ATRA concentration up to which cells are resistant” value [8] was “up to 10^−7 M” and the “ATRA concentration required to dissociate SMRT from DNA-bound PML-RARα versus RAR” value [9] was “substantially higher concentrations”. The “response of GAL-PLZF-RARα to ATRA (reporter activation)” value (GAL-PLZF-RARα; ATRA alone, 36 hours, compared to GAL-RARα) was “poorly responded” and the “effect on PML-RARα/SMRT complex” value (PML-RARα/SMRT complex) was “only weakly affected”.

Reference: patent US6706762B1, “Methods for the use of inhibitors of co-repressors for the treatment of neoplastic diseases” (The Salk Institute for Biological Studies, priority 1997, dated 2004)
